19 molecules from US20140113899A1 (priority 2011, published 2014) can be followed below.

Like-named read-outs stand apart in the source and are kept apart here.

Test [1] relates to Fusarium graminearum. Format: in vivo.
Another test relates to Botrytis cinere. The experiment in a line: Test Example 11: in vitro antimicrobial activity test with azoxystrobin and Compound I-1. Format: cell-based. The source says: Then, a mycelial growth inhibition ratio against Botrytis cinere was obtained.
Test [2] deals with Microdocum nivale. Put plainly: Test Example 9: in vitro antimicrobial activity test with benodanil and Compound I-1.
Method: (§1) In the test, a flora disk of 4 mm in diameter was cut from an area around a colony of Microdocum nivale pre-cultured in advance in a pre-culture PDA medium, and Microdocum nivale was inoculated on the PDA medium where chemical agents were mixed. After culturing at 25° C. for 3 days, a diameter of a grown colony was measured. Then, a mycelial growth inhibition ratio was calculated by comparing the diameter of this grown colony with a diameter of a colony on a medium without the chemical agents. As in Test Example 1, a cooperative effect was judged by use of Colby's formula.
For another test, the system named is Glomerella cingulata. The experiment in a line: Test Example 4: in vitro antimicrobial activity test with bixafen and Compound I-1. The format is cell-based.
Test [3] deals with Fusarium graminearum. Format: in vivo. This is another data set of the same source.
In the next test the test system is Rhizoctonia solani. Put plainly: Test Example 18: in vitro antimicrobial activity test with chlorothalonil and Compound I-1. The format is cell-based.
Test [4] relates to Fusarium graminearum. The format is in vivo. The note with it: wettable powder containing only the compound, 500 mg/L, sprayed at 1,000 L/ha; fourth to seventh days after inoculation.
In the next test the test system is Alternaria alternata. The experiment in a line: Test Example 15: in vitro antimicrobial activity test with fenpropimorph and Compound I-1. The format is cell-based. The source says: Then, a mycelial growth inhibition ratio against Alternaria alternata was obtained.
Test [5] concerns Pyricularia oryzae. The format is cell-based.
Another test concerns Puccinia recondida. Put plainly: Test Example 7: controlling effect of isopyrazam and Compound I-1 on wheat brown rust. The format is in vivo. As to conditions: Isopyrazam 3.125 g/ha alone. Here is the method:
Isopyrazam and Compound I-1 were mixed at a given ratio and a test for a cooperative effect against wheat brown rust was carried out. First, a chemical suspension containing isopyrazam and Compound I-1 were prepared and sprayed on a pot of a wheat plant at two leaves stage so that thus sprayed isopyrazam and Compound I-1 became a predetermined dosage. Then, after the pot was left for approximately one hour at a room temperature so that the plant body dries, Puccinia recondida was inoculated by spraying an urediniospore suspended solution (1×10^5/ml) of Puccinia recondida. Then, the pot was kept in a wet chamber at 20° C. for 15 hours, and after 14 days, onset of disease was examined by a disease-onset area index. Here, the test was conducted by use of one plot pot.

Another test has as its system Pythium aphanidermatum. The experiment in a line: Test Example 19: in vitro antimicrobial activity test with metalaxyl and Compound I-1. Format: cell-based.
Test [6] deals with Microdocum nivale. Put plainly: Test Example 10: in vitro antimicrobial activity test with penthiopyrad and Compound I-1.
Method: as §1
Then, a mycelial growth inhibition ratio against Microdocum nivale was obtained.
For a further test, the system named is Gaeumannomyces graminis. The experiment in a line: Test Example 13: in vitro antimicrobial activity test with prochloraz and Compound I-1. Format: cell-based. The source says:
Then, a mycelial growth inhibition ratio against Gaeumannomyces graminis was obtained.

The test system of test [7] is Microdocum nivale. The experiment in a line: Test Example 14: in vitro antimicrobial activity test with prothioconazole and Compound I-1.
For test [8], the system named is Fusarium graminearum. The format is in vivo. This is another data set of the same source.
Test [9] relates to Pyricularia oryzae. Format: cell-based. This is another data set of the same source.
The subject of test [10] is Pseudocercoporella herpotrichoides. Put plainly: Test Example 16: in vitro antimicrobial activity test with thiophanate-methyl and Compound I-1. Format: cell-based.
Where [11] appears, read: compound 25 g/ha alone (Metconazole 0 g/ha).
Where [12] appears, read: compound 50 g/ha alone (Metconazole 0 g/ha).
The mark [13] stands for this setting: compound 75 g/ha alone (Metconazole 0 g/ha).

For the molecule `C[C@]1(CCl)CC[C@@H](Cc2ccc(F)cc2)[C@]1(O)Cn1cncn1` (racemic) [Compound I-11, (1RS,2SR,5 SR)-2-chloromethyl-5-(4-fluorobenzyl)-2-methyl-1-(1H-1,2,4-triazole-1-ylmethyl)cyclopentanol], the “Actual Protective Value” in the test on Fusarium graminearum [1] (setting [11]) is 25.6; in the test on Fusarium graminearum [1] (setting [12]) it was 56.7; in the test with Fusarium graminearum [1] (setting [13]), 66.7.

Take `C[C@]1(CCl)CC[C@@H](Cc2ccccc2)[C@]1(O)Cn1cncn1` (racemic) [Compound I-12, (1RS,2SR,5SR)-2-chloromethyl-5-benzyl-2-methyl-1-(1H-1,2,4-triazole-1-ylmethyl)cyclopentanol]: the “Actual Protective Value” in the test with Fusarium graminearum [1] (setting [11]) came out at 40.0; in the test on Fusarium graminearum [1] (setting [12]), 65.6; in the test with Fusarium graminearum [1] (setting [13]), 75.6.

In the case of `CO/C=C(/C(=O)OC)c1ccccc1Oc1cc(Oc2ccccc2C#N)ncn1` [Azoxystrobin], the “Mycelial Growth Inhibition Ratio % Measured Value” was determined as 41% in the test with Botrytis cinere (Azoxystrobin 0.1575 ppm alone), 60% in the test on Botrytis cinere (Azoxystrobin 0.63 ppm alone), 69% in the test on Botrytis cinere (Azoxystrobin 2.5 ppm alone) and 71% in the test on Botrytis cinere (Azoxystrobin 10 ppm alone).

As for `O=C(Nc1ccccc1)c1ccccc1I` [Benodanil], the “Mycelial Growth Inhibition Ratio % Measured Value” is 0% with Microdocum nivale [2] (Benodanil 0.0393 ppm alone); 0% with Microdocum nivale [2] (Benodanil 0.1575 ppm alone); 0% in the test with Microdocum nivale [2] (Benodanil 0.63 ppm alone); 0% with Microdocum nivale [2] (Benodanil 2.5 ppm alone); 4% with Microdocum nivale [2] (Benodanil 10 ppm alone).

Take `Cn1cc(C(=O)Nc2ccc(F)cc2-c2ccc(Cl)c(Cl)c2)c(C(F)F)n1` [Bixafen]: the “Mycelial Growth Inhibition Ratio % Measured Value” in the test with Glomerella cingulata (Bixafen 0.0393 ppm alone) stood at 5%; in the test on Glomerella cingulata (Bixafen 0.1575 ppm alone), 7%; in the test on Glomerella cingulata (Bixafen 0.63 ppm alone), 7%; in the test on Glomerella cingulata (Bixafen 2.5 ppm alone), 16%; in the test with Glomerella cingulata (Bixafen 10 ppm alone), 38%.

With `O=C(Nc1ccccc1-c1ccc(Cl)cc1)c1cccnc1Cl` [Boscalid], the “Actual Protective Value” is 0 with Fusarium graminearum [3] (Boscalid 20 g/ha alone), 4 in the test with Fusarium graminearum [3] (Boscalid 40 g/ha alone), 15 with Fusarium graminearum [3] (Boscalid 60 g/ha alone) and 8 in the test on Fusarium graminearum [3] (Boscalid 80 g/ha alone).

Turning to `N#Cc1c(Cl)c(Cl)c(Cl)c(C#N)c1Cl` [Chlorothalonil], the “Mycelial Growth Inhibition Ratio % Measured Value” came out at 0% in the test with Rhizoctonia solani (Chlorothalonil 0.0393 ppm alone); 15% in the test on Rhizoctonia solani (Chlorothalonil 0.1575 ppm alone); 74% with Rhizoctonia solani (Chlorothalonil 0.63 ppm alone); 84% with Rhizoctonia solani (Chlorothalonil 2.5 ppm alone); 98% with Rhizoctonia solani (Chlorothalonil 10 ppm alone).

For `OC(CC1CC1(Br)Br)(Cn1cncn1)C1(Cl)CC1` (stereo not drawn) [Compound XVII-2, 2-(1-chlorocyclopropyl)-1-(2,2-dibromocyclopropyl)-3-(1H-1,2,4-triazole-1-yl)propane-2-ol], in the test with Fusarium graminearum [4], the protective value is listed as ≥ 90%.

Consider `CC(Cc1ccc(C(C)(C)C)cc1)CN1C[C@@H](C)O[C@@H](C)C1` (stereo partly drawn) [Fenpropimorph], for which the “Mycelial Growth Inhibition Ratio % Measured Value” with Alternaria alternata (Fenpropimorph 0.0393 ppm alone) and with Alternaria alternata (Fenpropimorph 0.1575 ppm alone) was 0% in each case.

`CC(C)C1CCC(Cc2ccc(Cl)cc2)C1(O)Cn1cncn1` (stereo not drawn) [Ipconazole]: the results for the “Mycelial Growth Inhibition Ratio % Measured Value” in the test with Pyricularia oryzae [5] (Ipconazole 0.0393 ppm alone), in the test with Pyricularia oryzae [5] (Ipconazole 0.1575 ppm alone) and in the test with Pyricularia oryzae [5] (Ipconazole 0.63 ppm alone) were 11%, 33% and 72%, respectively.

As to `CC(C)C1C2CCC1c1c(NC(=O)c3cn(C)nc3C(F)F)cccc12` (stereo not drawn) [Isopyrazam], the “Actual Protective Value” in the test on Puccinia recondida worked out at 57.

On to `COCC(=O)N(c1c(C)cccc1C)C(C)C(=O)OC` (stereo not drawn) [Metalaxyl], for which the “Mycelial Growth Inhibition Ratio % Measured Value” in the test on Pythium aphanidermatum (Metalaxyl 0.0393 ppm alone) came to 3%; in the test on Pythium aphanidermatum (Metalaxyl 0.1575 ppm alone), 7%; with Pythium aphanidermatum (Metalaxyl 0.63 ppm alone) it was 12%; in the test with Pythium aphanidermatum (Metalaxyl 2.5 ppm alone), 14%; in the test with Pythium aphanidermatum (Metalaxyl 10 ppm alone), 25%.

As for `CC1(C)CCC(Cc2ccc(Cl)cc2)C1(O)Cn1cncn1` (stereo not drawn) [Metconazole], the “Actual Protective Value” in the test on Fusarium graminearum [1] (Metconazole 10 g/ha alone) was determined as 13.9; with Fusarium graminearum [1] (Metconazole 20 g/ha alone) it was 26.7.

Consider `CC(C)CC(C)c1sccc1NC(=O)c1cn(C)nc1C(F)(F)F` (stereo not drawn) [Penthiopyrad], for which the “Mycelial Growth Inhibition Ratio % Measured Value” with Microdocum nivale [6] (Penthiopyrad 0.0393 ppm alone) was 2%; with Microdocum nivale [6] (Penthiopyrad 0.1575 ppm alone) it was 2%; with Microdocum nivale [6] (Penthiopyrad 0.63 ppm alone) it was 2%; with Microdocum nivale [6] (Penthiopyrad 2.5 ppm alone), 7%; in the test with Microdocum nivale [6] (Penthiopyrad 10 ppm alone) it was 36%.

`CCCN(CCOc1c(Cl)cc(Cl)cc1Cl)C(=O)n1ccnc1` [Prochloraz]: the “Mycelial Growth Inhibition Ratio % Measured Value” is on record as 12% with Gaeumannomyces graminis (Prochloraz 0.0393 ppm alone), 69% in the test with Gaeumannomyces graminis (Prochloraz 0.1575 ppm alone) and 98% in the test with Gaeumannomyces graminis (Prochloraz 0.63 ppm alone).

Take `OC(Cc1ccccc1Cl)(Cn1nc[nH]c1=S)C1(Cl)CC1` (stereo not drawn) [Prothioconazole]: the results for the “Mycelial Growth Inhibition Ratio % Measured Value” in the test with Microdocum nivale [7] (Prothioconazole 0.1575 ppm alone), with Microdocum nivale [7] (Prothioconazole 0.63 ppm alone) and in the test on Microdocum nivale [7] (Prothioconazole 2.5 ppm alone) were 11%, 34% and 76%, respectively.

For `COC(=O)N(OC)c1ccccc1COc1ccn(-c2ccc(Cl)cc2)n1` [Pyraclostrobin], the “Actual Protective Value” with Fusarium graminearum [8] (Pyraclostrobin 10 g/ha alone) is given as 10.6; in the test on Fusarium graminearum [8] (Pyraclostrobin 20 g/ha alone), 23.5; in the test on Fusarium graminearum [8] (Pyraclostrobin 30 g/ha alone), 36.5.

With `CC(C)(C)C(O)(CCc1ccc(Cl)cc1)Cn1cncn1` (stereo not drawn) [Tebuconazole], the “Mycelial Growth Inhibition Ratio % Measured Value” was found to be 3% with Pyricularia oryzae [9] (Tebuconazole 0.0393 ppm alone), 12% with Pyricularia oryzae [9] (Tebuconazole 0.1575 ppm alone) and 50% in the test on Pyricularia oryzae [9] (Tebuconazole 0.63 ppm alone).

For the molecule `COC(=O)NC(=S)Nc1ccccc1NC(=S)NC(=O)OC` [Thiophanate-methyl], the “Mycelial Growth Inhibition Ratio % Measured Value” in test [10] (Thiophanate-methyl 0.0393 ppm alone) was 0%; in test [10] (Thiophanate-methyl 0.1575 ppm alone), 0%; in test [10] (Thiophanate-methyl 0.63 ppm alone), 52%.
